Test results: patent publication US20110152313A1 (MACQUARIE UNIVERSITY, priority 2008, published 2011)

Tests used:
Assay in all cases: kinase binding constant, 11-point dose response (T7 phage, qPCR)
Conditions in all cases: >30 = no inhibition at highest concentration tested
CAMK2G = CAMK2G (Homo sapiens, UniProt Q13555)
Experimental: (§1) Kinase inhibition studies were performed by methods well known in the prior art (Fabian, M. A. et al. Nat. Biotechnol. 2005, 23, 329). Briefly, kinase-tagged T7 phage strains were prepared in an E. coli host derived from the BL21 strain. E. coli were grown to log-phase and infected with T7 phage and incubated with shaking at 32° C. until lysis. The lysates were centrifuged and filtered to remove cell debris. […] The liganded beads were blocked with excess biotin and washed with blocking buffer (SeaBlock (Pierce); 1% BSA, 0.05% Tween 20, 1 mM DTT) to remove unbound ligand and to reduce non-specific binding. […] All reactions were performed in polystyrene 96-well plates in a final volume of 0.135 ml. […] The kinase concentration in the eluates was measured by qPCR.
(§2) An 11-point 3-fold serial dilution of each test compound (from 30 μM to 0.5 nM) was prepared in 100% DMSO at 100× final test concentration and subsequently diluted to 1× in the assay (final DMSO concentration=1%). Binding constants (KDS) were calculated with a standard dose-response curve using a 5-point sigmoidal (Hill) equation.

CDK7 = CDK7 (Homo sapiens, UniProt P50613)
Experimental: as §1, §2

TYK2 = molecular target: T1, TYK2 (Homo sapiens, UniProt P29597)
T1 construct: TYK2(JH2domain-pseudokinase)
Experimental: as §1, §2

YANK2 = YANK2 (Homo sapiens, UniProt Q9NY57)
Experimental: as §1, §2

CLK2 = CLK2 (Homo sapiens, UniProt P49760)
Experimental: as §1, §2

CDKL5 = molecular target: T2, CDKL5 (Homo sapiens, UniProt O76039)
T2 sequence (O76039 1-960): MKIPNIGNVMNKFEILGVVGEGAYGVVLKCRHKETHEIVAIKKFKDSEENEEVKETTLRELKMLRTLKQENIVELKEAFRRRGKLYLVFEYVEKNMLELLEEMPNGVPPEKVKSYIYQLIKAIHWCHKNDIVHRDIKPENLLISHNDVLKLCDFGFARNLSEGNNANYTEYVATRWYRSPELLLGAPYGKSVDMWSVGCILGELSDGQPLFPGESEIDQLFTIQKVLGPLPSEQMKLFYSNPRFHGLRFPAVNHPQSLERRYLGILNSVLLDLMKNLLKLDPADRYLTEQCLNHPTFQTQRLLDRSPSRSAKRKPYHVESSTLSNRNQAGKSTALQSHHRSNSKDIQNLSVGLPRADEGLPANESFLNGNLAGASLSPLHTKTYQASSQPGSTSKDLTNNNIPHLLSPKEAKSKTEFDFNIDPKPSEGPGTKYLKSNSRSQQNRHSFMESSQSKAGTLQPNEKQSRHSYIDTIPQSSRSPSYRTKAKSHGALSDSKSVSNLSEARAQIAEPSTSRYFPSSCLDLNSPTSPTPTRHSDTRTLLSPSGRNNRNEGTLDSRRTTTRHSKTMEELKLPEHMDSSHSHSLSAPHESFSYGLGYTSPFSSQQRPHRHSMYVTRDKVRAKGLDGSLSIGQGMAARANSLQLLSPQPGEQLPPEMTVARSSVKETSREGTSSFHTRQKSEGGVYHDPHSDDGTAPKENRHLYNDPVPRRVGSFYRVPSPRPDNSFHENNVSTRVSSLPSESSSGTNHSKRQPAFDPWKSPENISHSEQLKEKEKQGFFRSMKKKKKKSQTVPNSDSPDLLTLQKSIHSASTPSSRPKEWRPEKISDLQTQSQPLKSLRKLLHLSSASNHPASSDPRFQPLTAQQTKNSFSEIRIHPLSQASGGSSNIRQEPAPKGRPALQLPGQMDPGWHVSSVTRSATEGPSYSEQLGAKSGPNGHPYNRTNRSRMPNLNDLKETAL
Experimental: as §1, §2

IRAK3 = molecular target: T3, IRAK3 (Homo sapiens, UniProt Q9Y616)
T3 sequence (Q9Y616 1-596): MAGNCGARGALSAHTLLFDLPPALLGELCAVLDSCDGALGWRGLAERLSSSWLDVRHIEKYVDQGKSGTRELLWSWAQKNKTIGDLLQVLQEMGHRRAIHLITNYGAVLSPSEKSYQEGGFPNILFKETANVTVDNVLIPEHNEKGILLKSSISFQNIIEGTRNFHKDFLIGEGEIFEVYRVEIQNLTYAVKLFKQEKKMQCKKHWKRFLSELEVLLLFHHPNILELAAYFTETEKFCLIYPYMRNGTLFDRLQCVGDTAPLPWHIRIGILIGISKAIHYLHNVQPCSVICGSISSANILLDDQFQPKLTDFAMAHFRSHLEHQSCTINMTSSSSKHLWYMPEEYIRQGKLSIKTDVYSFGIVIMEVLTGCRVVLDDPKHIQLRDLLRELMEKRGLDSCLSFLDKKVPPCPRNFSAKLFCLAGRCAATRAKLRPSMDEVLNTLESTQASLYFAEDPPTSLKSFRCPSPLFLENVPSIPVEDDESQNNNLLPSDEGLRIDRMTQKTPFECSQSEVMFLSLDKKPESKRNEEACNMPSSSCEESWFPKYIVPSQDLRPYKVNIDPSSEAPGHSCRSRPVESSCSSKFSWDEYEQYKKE
Experimental: as §1, §2

DYRK2 = molecular target: T4, DYRK2 (Homo sapiens, UniProt Q92630)
T4 sequence (Q92630 1-601): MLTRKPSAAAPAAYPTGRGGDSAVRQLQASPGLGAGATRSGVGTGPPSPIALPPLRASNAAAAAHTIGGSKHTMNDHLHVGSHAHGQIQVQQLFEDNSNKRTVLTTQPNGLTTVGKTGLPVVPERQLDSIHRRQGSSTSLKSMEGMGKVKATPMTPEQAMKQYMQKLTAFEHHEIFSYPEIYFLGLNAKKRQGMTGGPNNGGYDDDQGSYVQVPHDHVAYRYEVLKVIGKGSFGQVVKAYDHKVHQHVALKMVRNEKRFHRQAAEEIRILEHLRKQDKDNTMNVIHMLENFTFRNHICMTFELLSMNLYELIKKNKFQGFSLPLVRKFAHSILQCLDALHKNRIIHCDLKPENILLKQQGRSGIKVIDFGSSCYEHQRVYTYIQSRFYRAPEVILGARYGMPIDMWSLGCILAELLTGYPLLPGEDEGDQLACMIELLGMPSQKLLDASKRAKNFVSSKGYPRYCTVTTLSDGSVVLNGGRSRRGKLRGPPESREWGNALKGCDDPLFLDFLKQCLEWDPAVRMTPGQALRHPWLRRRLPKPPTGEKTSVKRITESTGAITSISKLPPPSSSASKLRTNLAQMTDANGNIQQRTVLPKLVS
Experimental: as §1, §2

Sequence of CDK7 (P50613 whole entry): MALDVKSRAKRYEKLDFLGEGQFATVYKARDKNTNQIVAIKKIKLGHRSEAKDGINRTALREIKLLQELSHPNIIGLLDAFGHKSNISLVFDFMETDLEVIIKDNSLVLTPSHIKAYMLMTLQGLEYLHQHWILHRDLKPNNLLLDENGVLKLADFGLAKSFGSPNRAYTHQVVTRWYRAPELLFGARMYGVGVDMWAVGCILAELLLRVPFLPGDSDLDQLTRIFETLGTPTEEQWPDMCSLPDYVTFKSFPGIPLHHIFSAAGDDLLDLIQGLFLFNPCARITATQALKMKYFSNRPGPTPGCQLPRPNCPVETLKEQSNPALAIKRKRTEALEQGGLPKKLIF
T1 sequence (P29597 whole entry): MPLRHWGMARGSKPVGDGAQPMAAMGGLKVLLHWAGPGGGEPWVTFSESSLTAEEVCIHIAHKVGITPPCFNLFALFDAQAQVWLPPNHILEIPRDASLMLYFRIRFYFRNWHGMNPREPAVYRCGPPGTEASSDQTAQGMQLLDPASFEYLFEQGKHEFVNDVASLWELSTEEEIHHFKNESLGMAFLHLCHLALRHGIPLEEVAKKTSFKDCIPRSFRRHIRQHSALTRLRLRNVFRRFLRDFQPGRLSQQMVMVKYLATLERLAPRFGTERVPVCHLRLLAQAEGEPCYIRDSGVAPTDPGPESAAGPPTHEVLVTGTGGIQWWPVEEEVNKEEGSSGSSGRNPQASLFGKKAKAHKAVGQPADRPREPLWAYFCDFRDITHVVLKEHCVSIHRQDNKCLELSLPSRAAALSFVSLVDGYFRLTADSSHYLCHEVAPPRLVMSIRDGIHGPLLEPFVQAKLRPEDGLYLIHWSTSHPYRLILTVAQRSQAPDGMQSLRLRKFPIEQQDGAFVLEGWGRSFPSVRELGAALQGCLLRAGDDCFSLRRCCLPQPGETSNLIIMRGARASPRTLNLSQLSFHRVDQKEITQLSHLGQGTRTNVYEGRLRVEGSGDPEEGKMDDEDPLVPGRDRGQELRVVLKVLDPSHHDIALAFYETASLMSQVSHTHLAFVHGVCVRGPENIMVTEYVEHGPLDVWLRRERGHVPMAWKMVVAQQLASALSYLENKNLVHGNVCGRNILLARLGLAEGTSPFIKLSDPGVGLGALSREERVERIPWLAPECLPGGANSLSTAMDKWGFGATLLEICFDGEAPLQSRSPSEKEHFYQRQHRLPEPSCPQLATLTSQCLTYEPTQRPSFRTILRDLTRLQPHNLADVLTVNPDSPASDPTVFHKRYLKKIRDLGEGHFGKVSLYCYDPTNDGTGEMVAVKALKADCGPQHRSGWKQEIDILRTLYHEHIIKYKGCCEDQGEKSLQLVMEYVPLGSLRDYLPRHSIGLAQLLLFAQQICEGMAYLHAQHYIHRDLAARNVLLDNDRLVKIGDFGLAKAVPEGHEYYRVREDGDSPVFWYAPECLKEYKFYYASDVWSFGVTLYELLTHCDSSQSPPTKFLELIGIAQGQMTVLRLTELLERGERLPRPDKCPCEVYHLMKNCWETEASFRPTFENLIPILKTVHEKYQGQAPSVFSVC
Sequence of YANK2 (Q9NY57 whole entry): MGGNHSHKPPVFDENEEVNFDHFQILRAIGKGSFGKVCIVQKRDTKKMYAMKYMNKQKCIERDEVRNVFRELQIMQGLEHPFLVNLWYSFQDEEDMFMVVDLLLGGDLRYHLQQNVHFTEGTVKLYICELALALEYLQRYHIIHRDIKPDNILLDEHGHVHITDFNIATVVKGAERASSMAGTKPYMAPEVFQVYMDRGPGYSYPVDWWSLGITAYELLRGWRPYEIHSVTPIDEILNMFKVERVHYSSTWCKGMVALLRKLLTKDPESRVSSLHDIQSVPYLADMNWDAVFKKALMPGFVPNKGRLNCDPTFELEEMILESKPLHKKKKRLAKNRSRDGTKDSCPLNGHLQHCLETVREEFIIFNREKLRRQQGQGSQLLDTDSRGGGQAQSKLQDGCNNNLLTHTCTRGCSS
Sequence of CLK2 (P49760 whole entry): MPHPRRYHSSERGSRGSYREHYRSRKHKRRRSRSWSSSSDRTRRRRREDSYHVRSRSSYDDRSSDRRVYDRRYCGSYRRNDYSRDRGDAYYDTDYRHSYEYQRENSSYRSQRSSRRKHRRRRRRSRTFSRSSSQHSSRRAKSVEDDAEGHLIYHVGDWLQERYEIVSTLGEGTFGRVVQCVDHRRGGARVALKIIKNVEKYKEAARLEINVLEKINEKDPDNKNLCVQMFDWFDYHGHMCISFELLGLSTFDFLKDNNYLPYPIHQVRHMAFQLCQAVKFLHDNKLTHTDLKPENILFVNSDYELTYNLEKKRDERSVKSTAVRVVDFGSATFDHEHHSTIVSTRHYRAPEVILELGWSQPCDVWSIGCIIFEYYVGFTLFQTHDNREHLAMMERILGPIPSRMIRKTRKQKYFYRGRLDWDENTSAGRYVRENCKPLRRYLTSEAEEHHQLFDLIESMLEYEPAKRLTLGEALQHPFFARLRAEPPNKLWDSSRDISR
Sequence of CAMK2G (Q13555 whole entry): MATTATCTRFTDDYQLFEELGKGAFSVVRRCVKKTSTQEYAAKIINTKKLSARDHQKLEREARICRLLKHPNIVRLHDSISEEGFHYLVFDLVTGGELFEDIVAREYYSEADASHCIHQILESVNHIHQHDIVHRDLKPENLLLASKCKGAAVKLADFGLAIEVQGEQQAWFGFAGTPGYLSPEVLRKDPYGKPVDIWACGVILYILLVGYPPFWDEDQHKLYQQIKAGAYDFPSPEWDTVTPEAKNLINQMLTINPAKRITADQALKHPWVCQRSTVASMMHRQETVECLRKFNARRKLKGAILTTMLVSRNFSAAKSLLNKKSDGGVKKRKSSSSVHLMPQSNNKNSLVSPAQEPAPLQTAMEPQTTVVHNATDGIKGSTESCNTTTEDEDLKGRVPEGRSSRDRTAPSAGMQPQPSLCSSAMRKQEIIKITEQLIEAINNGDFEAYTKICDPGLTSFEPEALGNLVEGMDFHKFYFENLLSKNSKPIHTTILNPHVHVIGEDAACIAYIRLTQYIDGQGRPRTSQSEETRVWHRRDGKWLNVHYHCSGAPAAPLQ

Compound	Kd (CAMK2G)	Kd (CDK7)	Kd (TYK2)	Kd (YANK2)	Kd (CLK2)	Kd (CDKL5)	Kd (IRAK3)	Kd (DYRK2)
Nc1nc2c(-c3ccccn3)nccc2[nH]1 [drawing 35, 4-(pyrid-2-yl)-1H-imidazo[4,5-c]pyridin-2-amine]	> 30 µM	7.5 µM	–	–	–	–	–	–
Nc1nc2c(-c3cnc4ccccc4c3)nccc2[nH]1 [drawing 36, 4-(quinolin-3-yl)-1H-imidazo[4,5-c]pyridin-2-amine]	–	–	0.29 µM	> 30 µM	1.2 µM	> 30 µM	8.9 µM	0.97 µM
